{"source": "paper PMC4109836", "about": "“Analysis of the co-operative interaction between the allosterically regulated proteins GK and GKRP using tryptophan fluorescence” (Biochemical Journal, 2014)", "key": {"GKRP-WT": {"biological_target": "T1, GKRP-WT (Homo sapiens, UniProt Q14397)", "T1 construct": "FLAG; made in house; host or cells: Escherichia coli", "T1 sequence (Q14397 1-625)": "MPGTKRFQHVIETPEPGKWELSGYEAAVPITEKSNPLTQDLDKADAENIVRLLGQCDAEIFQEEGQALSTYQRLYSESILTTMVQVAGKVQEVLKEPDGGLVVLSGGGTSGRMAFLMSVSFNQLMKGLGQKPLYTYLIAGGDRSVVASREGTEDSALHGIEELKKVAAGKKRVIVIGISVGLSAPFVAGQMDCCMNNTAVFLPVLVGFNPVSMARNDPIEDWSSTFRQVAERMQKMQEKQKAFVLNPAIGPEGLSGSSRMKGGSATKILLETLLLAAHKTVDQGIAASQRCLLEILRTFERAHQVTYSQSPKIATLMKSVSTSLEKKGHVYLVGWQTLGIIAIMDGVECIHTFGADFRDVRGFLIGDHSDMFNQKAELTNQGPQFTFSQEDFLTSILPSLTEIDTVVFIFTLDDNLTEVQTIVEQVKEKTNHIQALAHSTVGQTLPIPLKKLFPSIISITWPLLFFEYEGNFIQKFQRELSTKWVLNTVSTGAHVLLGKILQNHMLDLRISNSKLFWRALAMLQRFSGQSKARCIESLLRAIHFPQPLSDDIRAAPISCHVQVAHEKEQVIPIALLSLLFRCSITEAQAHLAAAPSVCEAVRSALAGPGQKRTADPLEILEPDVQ", "experiment": "Ligand binding to free GKRP-WT measured by TF of GKRP", "conditions": "ligand alone"}, "GKRP-P446L": {"biological_target": "T2, GKRP-P446L (Homo sapiens, UniProt Q14397, P446L)", "T2 construct": "FLAG; made in house; host or cells: Escherichia coli", "T2 sequence (Q14397 1-625 P446L)": "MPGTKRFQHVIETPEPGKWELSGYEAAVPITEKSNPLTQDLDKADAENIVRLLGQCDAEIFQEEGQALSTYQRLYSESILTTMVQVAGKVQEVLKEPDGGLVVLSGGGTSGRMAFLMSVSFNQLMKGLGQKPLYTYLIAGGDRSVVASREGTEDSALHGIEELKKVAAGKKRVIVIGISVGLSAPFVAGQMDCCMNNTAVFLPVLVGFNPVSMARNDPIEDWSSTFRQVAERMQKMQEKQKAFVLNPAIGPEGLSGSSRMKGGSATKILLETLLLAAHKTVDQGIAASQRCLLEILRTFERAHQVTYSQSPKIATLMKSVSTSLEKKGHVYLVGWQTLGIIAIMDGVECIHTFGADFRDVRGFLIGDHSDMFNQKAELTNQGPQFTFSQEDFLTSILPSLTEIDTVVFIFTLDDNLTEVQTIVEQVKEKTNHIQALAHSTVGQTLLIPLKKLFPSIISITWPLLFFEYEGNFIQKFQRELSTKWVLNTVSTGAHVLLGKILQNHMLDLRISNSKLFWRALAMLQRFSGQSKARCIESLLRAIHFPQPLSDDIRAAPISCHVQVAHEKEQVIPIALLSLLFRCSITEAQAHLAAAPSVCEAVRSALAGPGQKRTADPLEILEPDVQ", "experiment": "Ligand binding to free GKRP-P446L measured by TF of GKRP", "conditions": "ligand alone"}, "[1]": {"biological_target": "T3, hGKRP (0.3 μM)–GK-W99R/W167F/W257F (1 μM) complex, GKRP-WT (Homo sapiens, UniProt P35557+Q14397, W167F/W257F/W99R)", "T3 construct": "FLAG; GST (cleaved yes); made in house; host or cells: Escherichia coli", "T3 sequence (Q14397 1-625)": "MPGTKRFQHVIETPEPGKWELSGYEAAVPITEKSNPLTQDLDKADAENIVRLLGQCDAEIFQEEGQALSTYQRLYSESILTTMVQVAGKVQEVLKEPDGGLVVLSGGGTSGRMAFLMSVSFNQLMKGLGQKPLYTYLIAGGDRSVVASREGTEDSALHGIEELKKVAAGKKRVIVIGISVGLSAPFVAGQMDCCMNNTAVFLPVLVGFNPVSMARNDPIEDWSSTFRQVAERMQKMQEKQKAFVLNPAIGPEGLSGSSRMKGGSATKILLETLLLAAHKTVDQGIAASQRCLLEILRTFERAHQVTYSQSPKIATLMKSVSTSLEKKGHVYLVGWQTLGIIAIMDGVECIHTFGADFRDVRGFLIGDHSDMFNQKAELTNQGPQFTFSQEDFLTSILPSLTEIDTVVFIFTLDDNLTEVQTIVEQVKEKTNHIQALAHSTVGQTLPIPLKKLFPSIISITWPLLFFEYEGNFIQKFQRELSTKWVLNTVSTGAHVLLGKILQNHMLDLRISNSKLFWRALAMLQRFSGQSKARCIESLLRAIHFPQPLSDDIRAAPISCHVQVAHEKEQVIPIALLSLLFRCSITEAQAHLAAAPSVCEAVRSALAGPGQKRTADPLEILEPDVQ", "T3 sequence (P35557 1-465 W99R/W167F/W257F)": "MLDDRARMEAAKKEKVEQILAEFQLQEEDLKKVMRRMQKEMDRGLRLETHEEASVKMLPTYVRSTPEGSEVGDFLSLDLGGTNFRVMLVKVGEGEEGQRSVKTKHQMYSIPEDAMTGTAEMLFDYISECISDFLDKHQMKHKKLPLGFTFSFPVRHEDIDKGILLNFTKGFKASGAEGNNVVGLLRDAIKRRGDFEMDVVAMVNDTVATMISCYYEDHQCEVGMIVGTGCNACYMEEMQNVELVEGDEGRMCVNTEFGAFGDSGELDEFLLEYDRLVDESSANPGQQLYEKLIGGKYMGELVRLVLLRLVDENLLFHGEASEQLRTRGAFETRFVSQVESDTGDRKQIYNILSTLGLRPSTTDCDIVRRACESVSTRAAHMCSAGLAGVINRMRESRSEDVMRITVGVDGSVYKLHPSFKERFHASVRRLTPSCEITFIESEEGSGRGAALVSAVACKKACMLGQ", "experiment": "Ligand binding by / disassembly of GKRP-WT–GK-W99R/W167F/W257F complex by TF of hGKRP", "conditions": "ligand titration of 3:1 GK–GKRP-WT complex, 20°C", "method": "(§1) Spectra were measured with a Fluorolog-3-21 Jobin-Yvon Spex Instrument SA equipped with a 450 W Xenon lamp for excitation and a cooled R2658P Hamamatsu photomultiplier tube for detection. For all measurements, 90° geometry was employed and 295 nm excitation wavelengths were used to observe fluorescence emission in the 300–500 nm range. For TF, spectra slit width was set to provide a bandpath of 3 nm for excitation and 3 nm for emission. Spectra were corrected for instrumental response using Spex instrument software. A thermostatically controlled cell holder maintained sample temperature at 20°C. A thermocoupler was used to measure sample temperature. The buffer used contained 20 mM phosphate, 50 mM KCl, 1 mM EDTA and 1 mM DTT (pH 7.2).\n(§2) Fluorescence data were obtained via the stepwise addition of the appropriate amount of non-fluorescent GK-W99R/W167F/W257F to GKRP in a fluorescence cuvette. […] The change in GKRP protein fluorescence during titration was also measured using time-dependent scans. A manual procedure was used such that a typical titration with 10–12 additions required 20–25 min to perform. The same buffer as described above was routinely used unless stated otherwise. The bandpath was 0.5 nm at 295 nm for excitation and 12 nm at 340 nm for emission. […] For some graphical presentations the linear form of the Hill equation was used: log[F/(Fsat−F)]=H log x−H log KD [46]."}, "[2]": {"biological_target": "T4, hGKRP (0.3 μM)–GK-W99R/W167F/W257F (1 μM) complex, GKRP-P446L (Homo sapiens, UniProt P35557+Q14397, P446L/W167F/W257F/W99R)", "T4 construct": "FLAG; GST (cleaved yes); made in house; host or cells: Escherichia coli", "T4 sequence (Q14397 1-625 P446L)": "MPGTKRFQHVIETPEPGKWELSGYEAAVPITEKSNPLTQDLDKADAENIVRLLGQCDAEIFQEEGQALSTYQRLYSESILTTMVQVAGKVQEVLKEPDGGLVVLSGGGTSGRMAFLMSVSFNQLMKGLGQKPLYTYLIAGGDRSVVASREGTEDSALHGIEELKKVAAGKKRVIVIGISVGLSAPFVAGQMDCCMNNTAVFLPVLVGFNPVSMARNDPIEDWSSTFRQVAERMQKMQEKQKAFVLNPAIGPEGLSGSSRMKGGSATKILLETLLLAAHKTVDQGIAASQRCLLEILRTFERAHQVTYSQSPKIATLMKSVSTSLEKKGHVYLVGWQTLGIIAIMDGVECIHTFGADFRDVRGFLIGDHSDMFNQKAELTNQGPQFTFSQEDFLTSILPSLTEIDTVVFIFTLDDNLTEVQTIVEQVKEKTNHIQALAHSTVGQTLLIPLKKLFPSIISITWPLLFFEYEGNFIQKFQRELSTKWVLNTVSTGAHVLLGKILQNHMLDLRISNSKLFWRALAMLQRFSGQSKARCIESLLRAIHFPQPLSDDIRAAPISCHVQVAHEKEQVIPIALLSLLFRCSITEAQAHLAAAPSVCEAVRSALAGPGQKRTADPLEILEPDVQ", "T4 sequence (P35557 1-465 W99R/W167F/W257F)": "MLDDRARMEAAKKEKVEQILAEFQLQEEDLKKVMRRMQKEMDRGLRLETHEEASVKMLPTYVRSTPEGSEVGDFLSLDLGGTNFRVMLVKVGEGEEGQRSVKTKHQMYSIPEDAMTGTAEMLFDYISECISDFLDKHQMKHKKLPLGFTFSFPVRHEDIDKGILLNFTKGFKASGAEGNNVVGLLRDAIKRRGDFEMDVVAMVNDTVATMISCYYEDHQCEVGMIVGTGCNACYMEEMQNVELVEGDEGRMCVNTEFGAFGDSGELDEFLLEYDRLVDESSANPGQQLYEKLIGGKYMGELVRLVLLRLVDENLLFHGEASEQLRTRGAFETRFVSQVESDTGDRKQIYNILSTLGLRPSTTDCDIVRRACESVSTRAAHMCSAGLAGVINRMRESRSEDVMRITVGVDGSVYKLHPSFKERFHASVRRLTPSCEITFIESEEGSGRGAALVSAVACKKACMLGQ", "experiment": "Ligand binding by / disassembly of GKRP-P446L–GK-W99R/W167F/W257F complex by TF of hGKRP", "conditions": "ligand titration of 3:1 GK–GKRP-P446L complex, 20°C", "method": "as §1, §2"}}, "note": "pKd: −log10 of the molar value.", "data": [{"smiles": "O=C(COP(=O)([O-])[O-])[C@@H](O)[C@H](O)[C@H](O)CO.[Na+].[Na+]", "note": "[F1P, D-fructose 1-phosphate sodium salt]", "values": [{"measurement": "H (Hill number)", "setting": "GKRP-WT; 0.3 μM GKRP-WT, 20°C", "result": 1}, {"measurement": "ΔF (relative fluorescence change at 340 nm)", "setting": "GKRP-WT; 0.3 μM GKRP-WT, 20°C", "result": "−0.04"}, {"measurement": "pKd", "setting": "GKRP-WT; 0.3 μM GKRP-WT, 20°C, read-out: S0.5", "result": 4.19}, {"measurement": "effect on the TF signal of GKRP-WT", "setting": "GKRP-WT", "result": "decrease"}, {"measurement": "H (Hill number)", "setting": "GKRP-P446L; 0.3 μM GKRP-P446L, 20°C", "result": 1}, {"measurement": "ΔF (relative fluorescence change at 340 nm)", "setting": "GKRP-P446L; 0.3 μM GKRP-P446L, 20°C", "result": "−0.08"}, {"measurement": "pKd", "setting": "GKRP-P446L; 0.3 μM GKRP-P446L, 20°C, read-out: S0.5", "result": 3.86}, {"measurement": "effect on the TF signal of GKRP-P446L", "setting": "GKRP-P446L", "result": "decrease"}, {"measurement": "H", "setting": "[1]", "result": 1}, {"measurement": "ΔF (relative fluorescence change at 340 nm)", "setting": "[1]", "result": "−0.086"}, {"measurement": "pKd", "setting": "[1]; read-out: Kd (apparent)", "result": 3.90}, {"measurement": "H", "setting": "[2]", "result": 1}, {"measurement": "ΔF (relative fluorescence change at 340 nm)", "setting": "[2]; glucose curve biphasic (two phases)", "result": "−0.095"}, {"measurement": "pKd", "setting": "[2]; read-out: Kd (apparent)", "result": 3.53}]}]}
